This assay concerns the target T1, PIKfyve (Homo sapiens, UniProt Q9Y2I7).
T1 construct: T7 phage fusion (kinase-tagged phage) or DNA tag for qPCR; made in house; host or cells: E. coli BL21-derived host (T7 phage) for most kinases, HEK-293 for the rest
As to the kind of experiment: Kinase binding assay (kinase-tagged T7 phage, affinity beads, qPCR readout), Kd determination. As to conditions: 11-point 3-fold dilution series. Here is the method: Kinase assays. For most assays, kinase-tagged T7 phage strains were prepared in an E. coli host derived from the BL21 strain. E. coli were grown to log-phase and infected with T7 phage and incubated with shaking at 32° C. until lysis. The lysates were centrifuged and filtered to remove cell debris. The remaining kinases were produced in HEK-293 cells and subsequently tagged with DNA for qPCR detection. Streptavidin-coated magnetic beads were treated with biotinylated small molecule ligands for 30 minutes at room temperature to generate affinity resins for kinase assays. The liganded beads were blocked with excess biotin and washed with blocking buffer (SeaBlock (Pierce), 1% BSA, 0.05% Tween 20, 1 mM DTT) to remove unbound ligand and to reduce non-specific binding. Binding reactions were assembled by combining kinases, liganded affinity beads, and test compounds in 1× binding buffer (20% SeaBlock, 0.17×PBS, 0.05% Tween 20, 6 mM DTT). Test compounds were prepared as 111× stocks in 100% DMSO. Kds were determined using an 11-point 3-fold compound dilution series with three DMSO control points. All compounds for Kd measurements are distributed by acoustic transfer (non-contact dispensing) in 100% DMSO. The compounds were then diluted directly into the assays such that the final concentration of DMSO was 0.9%. All reactions performed in polypropylene 384-well plate. Each was a final volume of 0.02 ml. The assay plates were incubated at room temperature with shaking for 1 hour and the affinity beads were washed with wash buffer (1×PBS, 0.05% Tween 20). The beads were then re-suspended in elution buffer (1×PBS, 0.05% Tween 20, 0.5 μM non-biotinylated affinity ligand) and incubated at room temperature with shaking for 30 minutes. The kinase concentration in the eluates was measured by qPCR.
An 11-point 3-fold serial dilution of each test compound was prepared in 100% DMSO at 100× final test concentration and subsequently diluted to 1× in the assay (final DMSO concentration=1%). Most Kds were determined using a compound top concentration=30,000 nM. If the initial Kd determined was <0.5 nM (the lowest concentration tested), the measurement was repeated with a serial dilution starting at a lower top concentration.

Structures are written as SMILES. pKd: −log10 of the molar value.

These results are taken from patent US20220168315A1, “COMPOUNDS AND THERAPEUTIC USES THEREOF” (priority 2019, published 2022).

T1 sequence (Q9Y2I7 whole entry, the tested form may be a part): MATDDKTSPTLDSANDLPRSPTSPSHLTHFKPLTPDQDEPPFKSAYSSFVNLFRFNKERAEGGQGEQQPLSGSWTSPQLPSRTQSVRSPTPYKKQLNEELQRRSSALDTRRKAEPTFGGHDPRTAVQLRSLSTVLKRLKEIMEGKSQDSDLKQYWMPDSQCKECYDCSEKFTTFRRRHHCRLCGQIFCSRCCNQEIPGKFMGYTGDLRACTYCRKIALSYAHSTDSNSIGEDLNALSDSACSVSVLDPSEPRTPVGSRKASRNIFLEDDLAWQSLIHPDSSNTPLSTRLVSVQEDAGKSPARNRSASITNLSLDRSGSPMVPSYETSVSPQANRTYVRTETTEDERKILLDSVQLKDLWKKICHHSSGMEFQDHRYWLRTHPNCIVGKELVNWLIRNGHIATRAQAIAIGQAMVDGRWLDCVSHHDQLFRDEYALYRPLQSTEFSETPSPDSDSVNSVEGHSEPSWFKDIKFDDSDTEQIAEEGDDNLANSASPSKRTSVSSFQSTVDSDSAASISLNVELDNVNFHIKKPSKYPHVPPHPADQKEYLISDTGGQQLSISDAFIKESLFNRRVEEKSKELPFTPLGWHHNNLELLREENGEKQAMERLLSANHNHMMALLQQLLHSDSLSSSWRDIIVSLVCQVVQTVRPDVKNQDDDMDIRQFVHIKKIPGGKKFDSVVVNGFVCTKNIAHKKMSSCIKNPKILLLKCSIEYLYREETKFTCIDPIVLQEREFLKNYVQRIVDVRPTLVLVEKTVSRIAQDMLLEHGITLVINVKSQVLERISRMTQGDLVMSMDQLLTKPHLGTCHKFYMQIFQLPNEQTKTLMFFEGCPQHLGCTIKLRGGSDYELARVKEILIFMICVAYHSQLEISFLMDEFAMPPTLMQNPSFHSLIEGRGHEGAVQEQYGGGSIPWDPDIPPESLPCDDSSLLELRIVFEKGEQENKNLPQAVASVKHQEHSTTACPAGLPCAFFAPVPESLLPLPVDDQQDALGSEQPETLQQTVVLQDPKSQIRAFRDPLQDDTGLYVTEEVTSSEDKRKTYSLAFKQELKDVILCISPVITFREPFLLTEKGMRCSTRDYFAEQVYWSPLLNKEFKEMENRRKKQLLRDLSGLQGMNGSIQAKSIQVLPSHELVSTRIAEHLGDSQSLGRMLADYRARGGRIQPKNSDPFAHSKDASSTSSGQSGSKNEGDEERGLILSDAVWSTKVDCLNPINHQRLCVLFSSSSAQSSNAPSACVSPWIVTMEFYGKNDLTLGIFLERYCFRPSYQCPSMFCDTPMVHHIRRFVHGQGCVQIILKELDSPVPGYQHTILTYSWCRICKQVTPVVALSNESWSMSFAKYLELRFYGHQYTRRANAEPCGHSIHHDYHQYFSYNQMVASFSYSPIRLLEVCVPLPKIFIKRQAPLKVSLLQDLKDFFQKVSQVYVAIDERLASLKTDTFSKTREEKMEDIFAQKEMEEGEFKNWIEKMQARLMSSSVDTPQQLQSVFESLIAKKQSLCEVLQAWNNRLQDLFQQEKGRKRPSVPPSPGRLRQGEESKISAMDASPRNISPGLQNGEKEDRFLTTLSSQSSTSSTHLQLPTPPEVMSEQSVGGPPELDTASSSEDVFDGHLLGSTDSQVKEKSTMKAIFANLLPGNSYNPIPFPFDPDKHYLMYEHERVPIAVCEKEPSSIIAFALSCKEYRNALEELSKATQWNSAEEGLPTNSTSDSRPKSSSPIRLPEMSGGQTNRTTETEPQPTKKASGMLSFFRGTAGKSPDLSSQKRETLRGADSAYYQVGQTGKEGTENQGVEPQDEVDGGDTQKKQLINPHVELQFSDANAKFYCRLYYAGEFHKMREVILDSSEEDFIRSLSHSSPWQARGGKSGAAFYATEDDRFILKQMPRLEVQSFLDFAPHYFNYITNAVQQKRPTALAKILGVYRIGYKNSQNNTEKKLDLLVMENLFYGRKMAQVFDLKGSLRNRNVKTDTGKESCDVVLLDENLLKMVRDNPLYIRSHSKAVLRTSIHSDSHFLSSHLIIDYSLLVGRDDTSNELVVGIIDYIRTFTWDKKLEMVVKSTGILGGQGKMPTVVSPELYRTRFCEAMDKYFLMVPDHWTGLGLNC

`CCNC(=O)N1Cc2nc(N/N=C/c3cccc(C)c3)nc(N3CCOCC3)c2C1` [Example 1, N-ethyl-4-morpholino-2-[(2E)-2-(m-tolylmethylene)hydrazino]-5,7-dihydropyrrolo[3,4-d]pyrimidine-6-carboxamide] gave a pKd of 8.00 to 8.30.
`Cc1cccc(/C=N/Nc2nc3c(c(N4CCOCC4)n2)CN(C(=O)Nc2ccc(F)cc2)C3)c1` [Example 2, N-(4-Fluorophenyl)-4-morpholino-2-[(2E)-2-(m-tolylmethylene)hydrazino]-5,7-dihydropyrrolo[3,4-d]pyrimidine-6-carboxamide] gave a pKd of 8.00 to 8.30.
The result for `Cc1cccc(/C=N/Nc2nc3c(c(N4CCOCC4)n2)CN(C(=O)Nc2cccnc2)C3)c1` [Example 3, 4-Morpholino-2-[(2E)-2-(m-tolylmethylene)hydrazino]-N-(3-pyridyl)-5,7-dihydropyrrolo[3,4-d]pyrimidine-6-carboxamide] reads 8.30 to 9.00.
The compound `Cc1cccc(/C=N/Nc2nc3c(c(N4CCOCC4)n2)CN(C(=O)NC2CCCC2)C3)c1` [Example 4, N-cyclopentyl-4-morpholino-2-[(2E)-2-(m-tolylmethylene)hydrazino]-5,7-dihydropyrrolo[3,4-d]pyrimidine-6-carboxamide] showed a pKd of 8.30 to 9.00.
Compound `Cc1cccc(/C=N/Nc2nc3c(c(N4CCOCC4)n2)CN(C(=O)NC2CCC2)C3)c1` [Example 5, N-cyclobutyl-4-morpholino-2-[(2E)-2-(m-tolylmethylene)hydrazino]-5,7-dihydropyrrolo[3,4-d]pyrimidine-6-carboxamide] showed a pKd of 8.30 to 9.00.
`O=C(Nc1cccnc1)N1Cc2nc(N/N=C/c3cccc(O)c3)nc(N3CCOCC3)c2C1` [Example 6, 2-[(2E)-2-[(3-hydroxyphenyl)methylene]hydrazino]-4-morpholino-N-(3-pyridyl)-5,7-dihydropyrrolo[3,4-d]pyrimidine-6-carboxamide] had a pKd of 7.00 to 7.22.
To `O=C(Nc1cccnc1)N1Cc2nc(N/N=C/c3cccc(Cl)c3)nc(N3CCOCC3)c2C1` [Example 7, 2-[(2E)-2-[(3-chlorophenyl)methylene]hydrazino]-4-morpholino-N-(3-pyridyl)-5,7-dihydropyrrolo[3,4-d]pyrimidine-6-carboxamide] belongs 7.22 to 8.00; to `O=C(Nc1cccnc1)N1Cc2nc(N/N=C/c3cccc(C(F)(F)F)c3)nc(N3CCOCC3)c2C1` [Example 8, 4-morpholino-N-(3-pyridyl)-2-[(2E)-2-[[3-(trifluoromethyl)phenyl]methylene]hydrazino]-5,7-dihydropyrrolo[3,4-d]pyrimidine-6-carboxamide], 5.70 to 7.00; to `Cc1cccc(/C=N/Nc2nc3c(c(N4CCOCC4)n2)CN(Cc2cccnc2)C3)c1` [Example 10, 4-morpholino-N-[(E)-m-tolylmethyleneamino]-6-(3-pyridylmethyl)-5,7-dihydropyrrolo[3,4-d]pyrimidin-2-amine], 8.30 to 9.00.
The result for `Cc1cccc(/C=N/Nc2nc3c(c(N4CCOCC4)n2)CN(Cc2ccccn2)C3)c1` [Example 11, 4-morpholino-N-[(E)-m-tolylmethyleneamino]-6-(2-pyridylmethyl)-5,7-dihydropyrrolo[3,4-d]pyrimidin-2-amine] reads 7.22 to 8.00; that for `Cc1cccc(/C=N/Nc2nc3c(c(N4CCOCC4)n2)CN(S(=O)(=O)c2cn(C)cn2)C3)c1` [Example 15, 6-(1-methylimidazol-4-yl)sulfonyl-4-morpholino-N-[(E)-m-tolylmethyleneamino]-5,7-dihydropyrrolo[3,4-d]pyrimidin-2-amine], at least 9.00.
To `Cc1cccc(/C=N/Nc2nc3c(c(N4CCOCC4)n2)CN(S(=O)(=O)c2cccc(C(=O)O)c2)C3)c1` [Example 16, 3-[[4-morpholino-2-[(2E)-2-(m-tolylmethylene)hydrazino]-5,7-dihydropyrrolo[3,4-d]pyrimidin-6-yl]sulfonyl]benzoic acid] belongs 8.30 to 9.00; to `Cc1cccc(/C=N/Nc2nc3c(c(N4CCOCC4)n2)CN(S(=O)(=O)c2ccc(C(=O)O)cc2)C3)c1` [Example 17, 4-[[4-morpholino-2-[(2E)-2-(m-tolylmethylene)hydrazino]-5,7-dihydropyrrolo[3,4-d]pyrimidin-6-yl]sulfonyl]benzoic acid], 8.30 to 9.00.
In the case of `Cc1cccc(/C=N/Nc2nc3c(c(N4CCOCC4)n2)CN(S(=O)(=O)c2cccnc2)C3)c1` [Example 19, 4-morpholino-N-[(E)-m-tolylmethyleneamino]-6-(3-pyridylsulfonyl)-5,7-dihydropyrrolo[3,4-d]pyrimidin-2-amine], the pKd was 8.30 to 9.00.
Take `Cc1cccc(/C=N/Nc2nc3c(c(N4CCOCC4)n2)CN(S(=O)(=O)c2c(C)n[nH]c2C)C3)c1` [Example 20, 6-[(3,5-dimethyl-1H-pyrazol-4-yl)sulfonyl]-4-morpholino-N-[(E)-m-tolylmethyleneamino]-5,7-dihydropyrrolo[3,4-d]pyrimidin-2-amine]: the pKd is at least 9.00.
To `Cc1cccc(/C=N/Nc2nc3c(c(N4CCOCC4)n2)CN(S(=O)(=O)N(C)C)C3)c1` [Example 21, N,N-dimethyl-4-morpholino-2-[(2E)-2-(m-tolylmethylene)hydrazino]-5,7-dihydropyrrolo[3,4-d]pyrimidine-6-sulfonamide] belongs 8.30 to 9.00.
The result for `Cc1cccc(/C=N/Nc2nc3c(c(N4CCOCC4)n2)CN(S(=O)(=O)c2c(C)noc2C)C3)c1` [Example 22, 6-(3,5-dimethylisoxazol-4-yl)sulfonyl-4-morpholino-N-[(E)-m-tolylmethyleneamino]-5,7-dihydropyrrolo[3,4-d]pyrimidin-2-amine] reads 8.30 to 9.00; that for `Cc1cccc(/C=N/Nc2nc3c(c(N4CCOCC4)n2)CN(c2ncccn2)C3)c1` [Example 23, 4-morpholino-N-[(E)-m-tolylmethyleneamino]-6-pyrimidin-2-yl-5,7-dihydropyrrolo[3,4-d]pyrimidin-2-amine], 8.30 to 9.00.
To `Cc1cccc(/C=N/Nc2nc3c(c(N4CCOCC4)n2)CN(c2ccncn2)C3)c1` [Example 24, 4-morpholino-N-[(E)-m-tolylmethyleneamino]-6-pyrimidin-4-yl-5,7-dihydropyrrolo[3,4-d]pyrimidin-2-amine] belongs 8.30 to 9.00.
Compound `Cc1cccc(/C=N/Nc2nc3c(c(N4CCOC[C@@H]4C)n2)CN(c2ncccn2)C3)c1` [Example 25, 4-[(3S)-3-methylmorpholin-4-yl]-N-[(E)-m-tolylmethyleneamino]-6-pyrimidin-2-yl-5,7-dihydropyrrolo[3,4-d]pyrimidin-2-amine] had a pKd of 8.30 to 9.00.
The result for `Cc1cccc(/C=N/Nc2nc3c(c(N4CCOC[C@H]4C)n2)CN(c2ncccn2)C3)c1` [Example 26, 4-[(3R)-3-methylmorpholin-4-yl]-N-[(E)-m-tolylmethyleneamino]-6-pyrimidin-2-yl-5,7-dihydropyrrolo[3,4-d]pyrimidin-2-amine] reads 8.00 to 8.30.
Regarding `Cc1cccc(/C=N/Nc2nc3c(c(N4CCOCC4)n2)CN(C(=O)NC2COC2)C3)c1` [Example 27, 4-morpholino-2-[(2E)-2-(m-tolylmethylene)hydrazino]-N-(oxetan-3-yl)-5,7-dihydropyrrolo[3,4-d]pyrimidine-6-carboxamide], the pKd is 8.30 to 9.00.
To `Cc1cccc(/C=N/Nc2nc3c(c(N4CCOCC4)n2)CN(C(=O)NC2CNC2)C3)c1` [Example 28, N-(azetidin-3-yl)-4-morpholino-2-[(2E)-2-(m-tolylmethylene)hydrazino]-5,7-dihydropyrrolo[3,4-d]pyrimidine-6-carboxamide] belongs 8.00 to 8.30.

A word on the pKd: it is the Kd on a negative log10 scale, so that one unit is a factor of ten.
